From ChEMBL document CHEMBL3792297, “Studies on phenothiazines: New microtubule-interacting compounds with phenothiazine A-ring as potent antineoplastic agents” (Bioorg Med Chem, 2016)

How the values were obtained:
[1] = Growth inhibition of human LOXIMVI cells after 48 hrs by SRB assay; format: functional; settings: LOX IMVI
[2] = Growth inhibition of human SW620 cells after 48 hrs by SRB assay; format: functional; settings: SW-620, 48 h
[3] = test system: A498; assay: Growth inhibition of human A498 cells after 48 hrs by SRB assay; format: functional; settings: A498, 48 h
[4] = Growth inhibition of human MOLT4 cells after 48 hrs by SRB assay; format: functional; settings: MOLT-4, 48 h
[5] = test system: Malme-3M; assay: Growth inhibition of human MALME-3M cells after 48 hrs by SRB assay; format: functional
[6] = test system: SK-MEL-28; assay: Growth inhibition of human SK-MEL-28 cells after 48 hrs by SRB assay; format: functional; settings: SK-MEL-28, 48 h
[7] = Growth inhibition of human HOP92 cells after 48 hrs by SRB assay; format: functional; settings: HOP-92, 48 h
[8] = Growth inhibition of human HCT116 cells after 48 hrs by SRB assay; format: functional; settings: HCT-116, 48 h
[9] = Growth inhibition of human UACC62 cells after 48 hrs by SRB assay; format: functional; settings: UACC-62, 48 h
[10] = test system: SR; assay: Growth inhibition of human SR cells after 48 hrs by SRB assay; format: functional
[11] = Growth inhibition of human SF295 cells after 48 hrs by SRB assay; format: functional; settings: SF-295, 48 h
[12] = test system: SK-MEL-5; assay: Growth inhibition of human SK-MEL-5 cells after 48 hrs by SRB assay; format: functional; settings: SK-MEL-5, 48 h
[13] = test system: MCF7; assay: Growth inhibition of human MCF7 cells after 48 hrs by SRB assay; format: functional; settings: MCF7, 48 h
[14] = Growth inhibition of human IGROV1 cells after 48 hrs by SRB assay; format: functional; settings: IGROV-1, 48 h
[15] = test system: A549; assay: Growth inhibition of human A549 cells after 48 hrs by SRB assay; format: functional; settings: A549, 48 h
[16] = Growth inhibition of human OVCAR5 cells after 48 hrs by SRB assay; format: functional; settings: OVCAR-5, 48 h
[17] = Growth inhibition of human OVCAR8 cells after 48 hrs by SRB assay; format: functional; settings: OVCAR-8, 48 h
[18] = Growth inhibition of human UO31 cells after 48 hrs by SRB assay; format: functional; settings: UO-31, 48 h
[19] = Inhibition of sheep brain tubulin polymerization by DAPI staining-based fluorimetric method; design: species or system Ovis aries
[20] = Growth inhibition of human NCI-ADR-RES cells after 48 hrs by SRB assay; format: functional
[21] = test system: SK-MEL-2; assay: Growth inhibition of human SK-MEL-2 cells after 48 hrs by SRB assay; format: functional; settings: SK-MEL-2, 48 h
[22] = Growth inhibition of human RPMI8226 cells after 48 hrs by SRB assay; format: functional; settings: RPMI-8226, 48 h
[23] = Growth inhibition of human PC3 cells after 48 hrs by SRB assay; format: functional; settings: PC-3, 48 h
[24] = test system: NCI-H522; assay: Growth inhibition of human NCI-H522 cells after 48 hrs by SRB assay; format: functional; settings: NCI-H522, 48 h
[25] = Growth inhibition of human Caki1 cells after 48 hrs by SRB assay; format: functional; settings: CAKI-1, 48 h
[26] = test system: M14; assay: Growth inhibition of human M14 cells after 48 hrs by SRB assay; format: functional; settings: M14, 48 h
[27] = test system: 786-0; assay: Growth inhibition of human 786-0 cells after 48 hrs by SRB assay; format: functional; settings: 786-0, 48 h

| SMILES | GI50 [2] | GI50 [3] | GI50 [4] | GI50 [5] | GI50 [6] | GI50 [7] | GI50 [8] | GI50 [9] | GI50 [10] | GI50 [11] | GI50 [12] | GI50 [13] | GI50 [14] | GI50 [15] | GI50 [16] | GI50 [17] | GI50 [18] | GI50 [20] | GI50 [21] | GI50 [22] | further results |
| --- | --- | --- | --- | --- | --- | --- | --- | --- | --- | --- | --- | --- | --- | --- | --- | --- | --- | --- | --- | --- | --- |
| COc1ccc(C(=O)N2c3ccccc3Sc3ccccc32)c(C(F)(F)F)c1 | 425 nM | 282 nM | 406 nM | 25800 nM | 9170 nM | 152 nM | 505 nM | 438 nM | 312 nM | 372 nM | 692 nM | 411 nM | 2200 nM | 515 nM | 1610 nM | 592 nM | 2620 nM | 370 nM | 677 nM | 595 nM | GI50 [1]: 516 nM; IC50 [19]: 11900 nM; GI50 [23]: 426 nM; GI50 [24]: 320 nM; GI50 [25]: 692 nM; GI50 [26]: 343 nM |
| O=C(c1ccc2c(c1)Sc1ccccc1N2)c1c[nH]c2ccccc12 | 293 nM | 172 nM | 642 nM | 532 nM | 630 nM | 585 nM | 378 nM | 356 nM | 173 nM | 314 nM | 452 nM | 312 nM | 683 nM | 592 nM | 565 nM | 556 nM | 510 nM | 317 nM | 309 nM | 428 nM | GI50 [27]: 672 nM; IC50 [19]: 38900 nM; GI50 [23]: 544 nM; GI50 [24]: 338 nM; GI50 [25]: 359 nM; GI50 [26]: 319 nM |
| COc1ccc(C(=O)N2c3ccccc3Sc3ccccc32)cc1F | 282 nM | 219 nM | 323 nM | 365 nM | 320 nM | 1130 nM | 358 nM | 128 nM | 162 nM | 251 nM | 443 nM | 346 nM | 566 nM | 344 nM | 418 nM | 420 nM | 725 nM | 200 nM | 352 nM | 336 nM | GI50 [1]: 672 nM; GI50 [27]: 609 nM; IC50 [19]: 11800 nM; GI50 [24]: 114 nM; GI50 [25]: 465 nM; GI50 [26]: 232 nM |
| COc1ccc(C(=O)N2c3ccccc3Sc3ccccc32)c(F)c1 | 458 nM | 330 nM | 715 nM | 16200 nM | 1640 nM | 238 nM | 393 nM | 382 nM | 380 nM | 395 nM | 759 nM | 405 nM | 807 nM | 1190 nM | 3660 nM | 2200 nM | 3780 nM | 517 nM | 531 nM | 921 nM | GI50 [1]: 727 nM; GI50 [27]: 675 nM; IC50 [19]: 22500 nM; GI50 [23]: 407 nM; GI50 [24]: 403 nM; GI50 [25]: 584 nM; GI50 [26]: 371 nM |
| COc1ccc(C(=O)N2c3ccccc3Sc3ccccc32)c(OC)c1 | 412 nM | 307 nM | 447 nM | 416 nM | 942 nM | 374 nM | 452 nM | 321 nM | 562 nM | 484 nM | 408 nM | 450 nM | 926 nM | 785 nM | 10000 nM | 749 nM | 739 nM | 400 nM | 585 nM | 523 nM | GI50 [1]: 601 nM; GI50 [27]: 480 nM; GI50 [23]: 430 nM; GI50 [24]: 343 nM; GI50 [25]: 574 nM; GI50 [26]: 359 nM |
